{"source": "a compilation of properties of binary mixtures (doi:10.1016/j.molliq.2021.115610)", "assay": "xn = mol fraction of the nth substance listed", "details": "298 K, 101 kPa"}
{"smiles": "O", "note": "+ CC[NH3+].O=[N+]([O-])[O-]", "values": [{"measurement": "viscosity", "setting": "x1 = 1", "value": 0.89, "unit": "mPa·s"}]}
{"smiles": "CCCC[NH3+].O=[N+]([O-])[O-]", "note": "+ O", "values": [{"measurement": "viscosity", "setting": "x2 = 0.112", "value": 69.8, "unit": "mPa·s"}, {"measurement": "viscosity", "setting": "x2 = 0.2", "value": 49.5, "unit": "mPa·s"}, {"measurement": "viscosity", "setting": "x2 = 0.397", "value": 23.17, "unit": "mPa·s"}, {"measurement": "viscosity", "setting": "x2 = 0.494", "value": 15.53, "unit": "mPa·s"}, {"measurement": "viscosity", "setting": "x2 = 0.596", "value": 10.22, "unit": "mPa·s"}, {"measurement": "viscosity", "setting": "x2 = 0.698", "value": 6.54, "unit": "mPa·s"}, {"measurement": "viscosity", "setting": "x2 = 0.95", "value": 1.53, "unit": "mPa·s"}]}
{"smiles": "CC[NH3+].O=[N+]([O-])[O-]", "note": "+ O", "values": [{"measurement": "viscosity", "setting": "x2 = 0", "value": 37.5, "unit": "mPa·s"}, {"measurement": "viscosity", "setting": "x2 = 0.1", "value": 27.33, "unit": "mPa·s"}, {"measurement": "viscosity", "setting": "x2 = 0.198", "value": 19.84, "unit": "mPa·s"}, {"measurement": "viscosity", "setting": "x2 = 0.294", "value": 14.51, "unit": "mPa·s"}, {"measurement": "viscosity", "setting": "x2 = 0.394", "value": 10.37, "unit": "mPa·s"}, {"measurement": "viscosity", "setting": "x2 = 0.5", "value": 7.16, "unit": "mPa·s"}, {"measurement": "viscosity", "setting": "x2 = 0.6", "value": 4.98, "unit": "mPa·s"}, {"measurement": "viscosity", "setting": "x2 = 0.799", "value": 2.27, "unit": "mPa·s"}, {"measurement": "viscosity", "setting": "x2 = 0.9", "value": 1.47, "unit": "mPa·s"}]}
